# Measurements reported in patent publication US20150031102A1, “METHODS AND COMPOSITIONS FOR ENHANCED PRODUCTION OF BUTANOL BY CLOSTRIDIA” (Butrolix LLC, priority 2012, published 2015).
# Test system: Clostridium acetobutylicum strain ATCC 824
# Assay: Sequential batch transfer in 24-well culture plates (butanol, residual glucose, butanol yield and productivity)
# Format: cell-based
# Details: for Residual glucose concentration: initial glucose 60 g/L
# Method: Each well contained 1.5 mL of growth medium. Peptide was added to each well at the indicated concentration (0, 25, 50, and 100 nM). Every 24 hours fresh medium and peptide treatment were added to a new column of wells then 1.5 μL of the previous day culture was transferred to the new well. Wells were harvested for glucose and butanol analysis after 96 hours of growth. Transfers 1, 4, 7, 10, 13, 16, […].
# Briefly, Clostridium spores were germinated in a suitable growth medium for 18-24 hours then […] was transferred to 1.5 mL of fresh medium in each of four wells on a 24-well culture plate. Three of the wells had been treated with 25 nM, 50 nM and 100 nM of peptide, respectively while the fourth well was untreated. Thereafter, every 24 hours […] of each subculture was transferred to 1.5 mL of fresh medium that contained the same peptide treatment or no treatment. Transfers of successive subcultures were done for 24 days, and each subculture was grown for 96 hours before being harvested. Culture supernatants were recovered following centrifugation and were analyzed for butanol and residual glucose concentrations. Determination of optimum peptide treatment levels was based on a graphical comparison of the concentration of butanol in each of the four culture wells for sequential transfers 1, 4, 7, 10, 13, 16, 19, 22 and 24.
# Clostridium acetobutylicum strain ATCC 824 was used in all experiments and the growth medium used for sequential batch transfer, time course, and continuous culture experiments contained yeast extract, casamino acids, L-cysteine, L-asparagine, phosphate buffer, trace minerals, and 6% glucose. What are believed to be quorum-sensing peptides that were used in the experiments were chemically synthesized peptides SEQ ID NO: 143 (amino acid sequence: SYPGWSW) and SEQ ID NO: 144 (amino acid sequence: ILILISG). Routine growth of the bacteria as well as the sequential batch and time course experiments were conducted in a Form a Scientific Model 1029 anaerobic gas chamber at 32° C. Continuous cultures were performed at 32° C. using duplicate New Brunswick Scientific BioFlo 3000 apparati with a dilution rate of 0.01 volume per hour, 75 rpm agitation, and nitrogen gas sparging. Optical density of culture samples was measured at 600 nm in a Beckman DU 600 series spectrophotometer and glucose was analyzed using a YSI Model 2700 Select Biochemistry Analyzer with internal glucose calibration. Butanol concentrations were determined by measuring experimental and standard samples using a Varian Saturn 3 Gas Chromatograph/Mass Spectrometer and calculating butanol concentrations using standard curves.
# (§1) Sequential batch transfer experiments were carried out in 24-well culture plates that contained 1.5 mL of medium per well. Peptide was added to each well at the indicated concentrations of 0 nM (control), 25 nM, 50 nM, or 100 nM. Every 24 hours, fresh medium and peptide treatments were added to a new column of wells. Then, 1.5 uL of the previous day culture was transferred to the new well. Wells were harvested for glucose and butanol analysis after 96 hours of growth; transfers 1, 4, 7, 10, 13, 16, 19, 22, and 24 were analyzed. Two representative experiments are shown in Tables 30 and 31 and FIGS. 14 and 15.
# as §1, with “32” for “30”, “33” for “31”, “16” for “14”, “17.” for “15.”
# [1] = 50 nM peptide, transfer 19, after 96 hours of culture, Expt. 1
# [2] = 50 nM peptide, transfer 22, after 96 hours of culture, Expt. 1
# [3] = 50 nM peptide, transfer 24, after 96 hours of culture, Expt. 1
# [4] = 100 nM peptide, transfer 1, after 96 hours of culture, Expt. 1
# [5] = 100 nM peptide, transfer 4, after 96 hours of culture, Expt. 1
# [6] = 100 nM peptide, transfer 7, after 96 hours of culture, Expt. 1
# [7] = 100 nM peptide, transfer 10, after 96 hours of culture, Expt. 1
# [8] = 100 nM peptide, transfer 13, after 96 hours of culture, Expt. 1
# [9] = 100 nM peptide, transfer 16, after 96 hours of culture, Expt. 1
# [10] = 100 nM peptide, transfer 19, after 96 hours of culture, Expt. 1
# [11] = 100 nM peptide, transfer 22, after 96 hours of culture, Expt. 1
# [12] = 100 nM peptide, transfer 24, after 96 hours of culture, Expt. 1
# [13] = BP1106213 first experiment, 25 nM, transfer 10
substance,measurement,setting,value
ILILISG (Derived from Clostridium acetobutylicum SEQ ID NO: 110) [peptide SEQ ID NO: 144],Butanol concentration,[1],8.40 g/L
same,Butanol productivity,[1],0.09 g butanol/L-h
same,Butanol yield,[1],0.14 g butanol/g/glucose
same,Butanol concentration,"50 nM peptide, transfer 19, after 96 hours of culture, Expt. 2 (repeat), Table 58",4.66 g/L
same,Residual glucose concentration,[1],0.0 g/L
same,Residual glucose concentration,"50 nM peptide, transfer 19, after 96 hours of culture, Expt. 2 (repeat), Table 45",49.2 g/L
same,Butanol concentration,[2],14.14 g/L
same,Butanol productivity,[2],0.15 g butanol/L-h
same,Butanol yield,[2],0.23 g butanol/g/glucose
same,Butanol concentration,"50 nM peptide, transfer 22, after 96 hours of culture, Expt. 2 (repeat), Table 58",4.22 g/L
same,Residual glucose concentration,[2],12.6 g/L
same,Residual glucose concentration,"50 nM peptide, transfer 22, after 96 hours of culture, Expt. 2 (repeat), Table 45",40.2 g/L
same,Butanol concentration,[3],6.90 g/L
same,Butanol productivity,[3],0.07 g butanol/L-h
same,Butanol yield,[3],0.11 g butanol/g/glucose
same,Butanol concentration,"50 nM peptide, transfer 24, after 96 hours of culture, Expt. 2 (repeat), Table 58",1.87 g/L
same,Residual glucose concentration,[3],43.2 g/L
same,Residual glucose concentration,"50 nM peptide, transfer 24, after 96 hours of culture, Expt. 2 (repeat), Table 45",0.0 g/L
same,Butanol concentration,[4],1.78 g/L
same,Butanol productivity,[4],0.02 g butanol/L-h
same,Butanol yield,[4],0.03 g butanol/g/glucose
same,Butanol concentration,"100 nM peptide, transfer 1, after 96 hours of culture, Expt. 2 (repeat), Table 58",1.19 g/L
same,Residual glucose concentration,[4],48.5 g/L
same,Residual glucose concentration,"100 nM peptide, transfer 1, after 96 hours of culture, Expt. 2 (repeat), Table 45",55.8 g/L
same,Butanol concentration,[5],7.17 g/L
same,Butanol productivity,[5],0.07 g butanol/L-h
same,Butanol yield,[5],0.12 g butanol/g/glucose
same,Butanol concentration,"100 nM peptide, transfer 4, after 96 hours of culture, Expt. 2 (repeat), Table 58",2.12 g/L
same,Residual glucose concentration,[5],0.0 g/L
same,Residual glucose concentration,"100 nM peptide, transfer 4, after 96 hours of culture, Expt. 2 (repeat), Table 45",49.9 g/L
same,Butanol concentration,[6],5.62 g/L
same,Butanol productivity,[6],0.06 g butanol/L-h
same,Butanol yield,[6],0.09 g butanol/g/glucose
same,Butanol concentration,"100 nM peptide, transfer 7, after 96 hours of culture, Expt. 2 (repeat), Table 58",2.11 g/L
same,Residual glucose concentration,[6],0.0 g/L
same,Residual glucose concentration,"100 nM peptide, transfer 7, after 96 hours of culture, Expt. 2 (repeat), Table 45",49.4 g/L
same,Butanol concentration,[7],7.91 g/L
same,Butanol productivity,[7],0.08 g butanol/L-h
same,Butanol yield,[7],0.13 g butanol/g/glucose
same,Butanol concentration,"100 nM peptide, transfer 10, after 96 hours of culture, Expt. 2 (repeat), Table 58",2.07 g/L
same,Residual glucose concentration,[7],0.1 g/L
same,Residual glucose concentration,"100 nM peptide, transfer 10, after 96 hours of culture, Expt. 2 (repeat), Table 45",51.2 g/L
same,Butanol concentration,[8],6.37 g/L
same,Butanol productivity,[8],0.07 g butanol/L-h
same,Butanol yield,[8],0.11 g butanol/g/glucose
same,Butanol concentration,"100 nM peptide, transfer 13, after 96 hours of culture, Expt. 2 (repeat), Table 58",1.54 g/L
same,Residual glucose concentration,[8],0.1 g/L
same,Residual glucose concentration,"100 nM peptide, transfer 13, after 96 hours of culture, Expt. 2 (repeat), Table 45",49.7 g/L
same,Butanol concentration,[9],7.11 g/L
same,Butanol productivity,[9],0.07 g butanol/L-h
same,Butanol yield,[9],0.12 g butanol/g/glucose
same,Butanol concentration,"100 nM peptide, transfer 16, after 96 hours of culture, Expt. 2 (repeat), Table 58",5.68 g/L
same,Residual glucose concentration,[9],0.1 g/L
same,Residual glucose concentration,"100 nM peptide, transfer 16, after 96 hours of culture, Expt. 2 (repeat), Table 45",0.0 g/L
same,Butanol concentration,[10],5.55 g/L
same,Butanol productivity,[10],0.06 g butanol/L-h
same,Butanol yield,[10],0.09 g butanol/g/glucose
same,Butanol concentration,"100 nM peptide, transfer 19, after 96 hours of culture, Expt. 2 (repeat), Table 58",2.61 g/L
same,Residual glucose concentration,[10],0.0 g/L
same,Residual glucose concentration,"100 nM peptide, transfer 19, after 96 hours of culture, Expt. 2 (repeat), Table 45",0.0 g/L
same,Butanol concentration,[11],13.86 g/L
same,Butanol productivity,[11],0.14 g butanol/L-h
same,Butanol yield,[11],0.23 g butanol/g/glucose
same,Butanol concentration,"100 nM peptide, transfer 22, after 96 hours of culture, Expt. 2 (repeat), Table 58",3.41 g/L
same,Residual glucose concentration,[11],0.6 g/L
same,Residual glucose concentration,"100 nM peptide, transfer 22, after 96 hours of culture, Expt. 2 (repeat), Table 45",0.1 g/L
same,Butanol concentration,[12],7.20 g/L
same,Butanol productivity,[12],0.07 g butanol/L-h
same,Butanol yield,[12],0.12 g butanol/g/glucose
same,Butanol concentration,"100 nM peptide, transfer 24, after 96 hours of culture, Expt. 2 (repeat), Table 58",3.29 g/L
same,Residual glucose concentration,[12],0.1 g/L
same,Residual glucose concentration,"100 nM peptide, transfer 24, after 96 hours of culture, Expt. 2 (repeat), Table 45",0.1 g/L
same,Increase in butanol yield,"BP1106213, batch cultures (summary of findings)",more than 50%
same,Transfers over which butanol production was enhanced,"BP1106213, sequential batch cultures (summary of findings)",transfer 4 through transfer 16
same,Butanol productivity,[13],0.12 g butanol/1-hour
same,Butanol yield,[13],0.20 g butanol/g glucose
same,Butanol yield and productivity greater than untreated control,[13],more than 50%
same,Effect on butanol production versus untreated control,"BP1106213 first experiment, 100 nM","generally resulted in decreased butanol production, or no difference from the untreated control"
same,Glucose consumption,"BP1106213 first experiment, all treated and untreated cultures, transfer 4 through transfer 19",~100%
same,Effect on butanol production versus untreated control,"BP1106213 repeated (second) experiment, on the whole",inhibit butanol production
same,Increase in butanol over untreated control,"SEQ ID NO: 144 first experiment, 25 nM, transfer 4",31%
same,Increase in butanol over untreated control,"SEQ ID NO: 144 first experiment, 25 nM, transfer 10",57%
same,Increase in butanol over untreated control,"SEQ ID NO: 144 first experiment, 25 nM, transfer 16",21%
same,Increase in butanol over untreated control,"SEQ ID NO: 144 first experiment, 50 nM, transfer 4",25%
same,Increase in butanol over untreated control,"SEQ ID NO: 144 first experiment, 50 nM, transfer 10",46%
same,Increase in butanol over untreated control,"SEQ ID NO: 144 first experiment, 50 nM, transfer 16",35%
same,Increase in butanol over untreated control,"SEQ ID NO: 144 second experiment, 25 nM, transfer 13",283%
same,Increase in butanol over untreated control,"SEQ ID NO: 144 second experiment, 25 nM, transfer 16",10%
same,Increase in butanol over untreated control,"SEQ ID NO: 144 second experiment, 50 nM, transfer 13",85%
same,Effect on differentiation and butanol production,some sequential cultures,inducer of differentiation and butanol production
